Entries after “also recorded” stand apart in the source; their conditions may differ. Where two headings read alike, the source gives them in different places.
Columns and labels:
[1] = target: Eg.TRPMPZQ (Echinococcus granulosus, UniProt W6UVV9); test: cell-based; conditions: HEK293, Ca2+ reporter, mean ± standard deviation
[2] = system: juvenile schistosomes; test: Microscopy analysis of juvenile morphology and motility (viability score 0-3); conditions: 10 μM, 72 h, Table S1
[3] = system: HepG2 hepatic epithelial cells; test: in vitro
Procedure: (§1) Next, we conducted a more detailed investigation by performing dose–response assays with each compound on HepG2 hepatic epithelial cells, as the liver is one of the major organs affected in intestinal schistosomiasis.
(§2) More details are provided in the Supporting Information.
(§3) Adult worm ex-vivo high-content assay
(§4) Male and female worms were placed in 96-well microplates (one worm per well) and incubated […]
(§5) to 72 hours. Brightfield timelapse images (100 images, 0.3-second intervals) were captured from each well before, immediately after, and every 24 hours following compound addition using an ImageXpress Micro Confocal High Content System equipped with a 2x objective. Image analysis was performed through a custom pipeline in CellProfiler software (v. 4.2.1, Windows OS).57 During analysis, the area of each worm and its displacement between consecutive image captures (i.e., images taken at successive time points) were measured using the parameters “Area” and “False Negative Rate” from the MeasureObjectSizeShape and MeasureObjectOverlap modules, respectively. These measurements were then modeled by a multilevel generalized linear statistical model. The effects of the experimental treatments on parasite motility were estimated with the integrated nested Laplace approximation (INLA) method, available in the INLA package of R (https://www.r-inla.org). The half-maximal inhibitory concentration (EC50) of each compound was calculated based on the worms' estimated motility using the […] 4-parameter logistic equation in GraphPad Prism version 9.0.0 for Windows (GraphPad Software, Boston, MA, USA; www.graphpad.com). […]
(§6) either at a fixed concentration (10 µM) or across a range of concentrations (0.0001–300 µM), or with DMSO as a negative control. Two hours before the end of the experiment (t0), a resazurin solution (final concentration: 0.01 mg/mL) was added to each well and the first fluorescence […]
(§7) reader. At the end of the incubation (t1), a second reading was performed. The fluorescence attributed solely to resorufin was measured by subtracting the fluorescence readings at t0 from those at t1. The results were expressed as percentual cell viability considering negative control

[4] = in vitro; conditions: human, HepG2 cytotoxicity (CC50)
Procedure: as §1, §2, §3, §4, §5, §6, §7

[5] = system: adult schistosomes (male and female worms); test: Adult worm ex vivo high-content image-based motility assay; type: cell-based, Schistosoma mansoni
Procedure: Adult schistosomes’ motility was determined using a high-content assay previously developed by our group, , with images analyzed in CellProfiler software. More details are provided in the Supporting Information.
as §3
“Area” and “False Negative Rate” from the MeasureObjectSizeShape and MeasureObjectOverlap modules, respectively. These measurements were then modeled by a multilevel generalized linear statistical model. The effects of the experimental treatments on […]
(§8) The half-maximal inhibitory
(§9) Windows (GraphPad Software, Boston, MA, USA; www.graphpad.com). […]
with DMSO as a negative control.

[6] = target: Sm.TRPMPZQ (wild-type) (Schistosoma mansoni, UniProt A0A5K4F0X5); test: Ca2+ reporter (FLIPR) activation assay, wild-type Sm.TRPMPZQ in HEK293 cells; type: cell-based
Chain of Sm.TRPMPZQ (wild-type) (A0A5K4F0X5 entry or part of it): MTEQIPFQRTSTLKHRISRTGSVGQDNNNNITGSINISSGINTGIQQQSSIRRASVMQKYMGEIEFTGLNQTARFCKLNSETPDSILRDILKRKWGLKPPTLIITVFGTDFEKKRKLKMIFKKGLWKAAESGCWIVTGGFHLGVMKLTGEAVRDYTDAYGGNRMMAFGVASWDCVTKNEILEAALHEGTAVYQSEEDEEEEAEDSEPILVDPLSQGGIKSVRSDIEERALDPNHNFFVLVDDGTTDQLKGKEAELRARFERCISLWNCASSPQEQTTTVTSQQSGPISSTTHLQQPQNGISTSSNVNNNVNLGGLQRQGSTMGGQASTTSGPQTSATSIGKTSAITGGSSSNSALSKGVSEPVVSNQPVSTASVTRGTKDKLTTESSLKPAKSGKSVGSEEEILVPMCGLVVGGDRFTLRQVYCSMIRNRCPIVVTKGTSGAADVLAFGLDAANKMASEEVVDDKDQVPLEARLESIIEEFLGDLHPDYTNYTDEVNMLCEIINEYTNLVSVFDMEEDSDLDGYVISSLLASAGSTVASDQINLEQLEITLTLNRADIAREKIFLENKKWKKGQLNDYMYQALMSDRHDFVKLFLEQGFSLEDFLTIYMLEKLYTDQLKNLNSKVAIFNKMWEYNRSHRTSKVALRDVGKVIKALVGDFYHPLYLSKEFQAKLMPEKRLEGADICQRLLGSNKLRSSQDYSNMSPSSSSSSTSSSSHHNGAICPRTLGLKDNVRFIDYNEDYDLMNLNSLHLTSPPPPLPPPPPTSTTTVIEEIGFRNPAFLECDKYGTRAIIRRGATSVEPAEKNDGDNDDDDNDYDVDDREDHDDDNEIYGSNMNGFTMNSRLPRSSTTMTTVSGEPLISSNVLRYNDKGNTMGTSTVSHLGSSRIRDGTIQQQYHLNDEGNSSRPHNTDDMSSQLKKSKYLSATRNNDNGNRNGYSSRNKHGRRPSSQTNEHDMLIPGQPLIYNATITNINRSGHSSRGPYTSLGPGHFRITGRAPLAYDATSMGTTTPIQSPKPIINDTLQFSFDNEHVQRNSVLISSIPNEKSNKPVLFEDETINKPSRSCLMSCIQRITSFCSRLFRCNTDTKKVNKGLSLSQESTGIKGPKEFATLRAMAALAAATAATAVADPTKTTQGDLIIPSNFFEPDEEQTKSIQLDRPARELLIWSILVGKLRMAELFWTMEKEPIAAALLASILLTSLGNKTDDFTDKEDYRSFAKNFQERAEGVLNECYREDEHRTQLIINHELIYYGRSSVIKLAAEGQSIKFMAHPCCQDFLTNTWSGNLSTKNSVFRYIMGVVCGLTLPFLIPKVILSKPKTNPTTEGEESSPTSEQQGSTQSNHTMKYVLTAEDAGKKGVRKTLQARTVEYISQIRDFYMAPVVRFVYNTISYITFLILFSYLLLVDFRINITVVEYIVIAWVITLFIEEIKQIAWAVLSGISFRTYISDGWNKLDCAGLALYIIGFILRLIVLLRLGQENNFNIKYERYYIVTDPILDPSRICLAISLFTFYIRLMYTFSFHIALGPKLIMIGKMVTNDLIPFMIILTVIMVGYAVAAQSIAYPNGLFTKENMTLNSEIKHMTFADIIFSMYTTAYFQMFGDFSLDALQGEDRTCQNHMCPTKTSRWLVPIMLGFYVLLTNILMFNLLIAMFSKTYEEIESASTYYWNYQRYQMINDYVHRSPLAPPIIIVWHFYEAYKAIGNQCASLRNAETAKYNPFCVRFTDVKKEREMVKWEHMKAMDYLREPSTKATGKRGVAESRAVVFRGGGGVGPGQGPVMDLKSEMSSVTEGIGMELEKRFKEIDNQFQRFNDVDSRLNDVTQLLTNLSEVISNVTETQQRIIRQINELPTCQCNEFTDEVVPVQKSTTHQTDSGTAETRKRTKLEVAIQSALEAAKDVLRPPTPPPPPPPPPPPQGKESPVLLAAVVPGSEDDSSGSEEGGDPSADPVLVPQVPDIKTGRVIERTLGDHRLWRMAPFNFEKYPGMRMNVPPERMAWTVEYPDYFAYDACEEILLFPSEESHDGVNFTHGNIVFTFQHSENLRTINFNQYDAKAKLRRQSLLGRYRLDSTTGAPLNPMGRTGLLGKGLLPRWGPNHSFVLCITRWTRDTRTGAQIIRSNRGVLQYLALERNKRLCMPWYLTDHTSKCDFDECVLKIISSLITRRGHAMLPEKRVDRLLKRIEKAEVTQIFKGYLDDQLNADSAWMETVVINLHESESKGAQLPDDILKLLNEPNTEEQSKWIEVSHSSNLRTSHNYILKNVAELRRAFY
Procedure: The Ca^2+ reporter assay was performed using a Fluorescence Imaging Plate Reader (FLIPR) system, as described in the Supporting Information. […]
as §8, §9
with DMSO as a negative control. […]
reader. […] The fluorescence
Untransfected HEK293 cells were used as a control.
10% fetal bovine serum (FBS). […]
atmosphere containing 5% CO₂. Following incubation, the growth medium was removed and […]
buffer containing 2.5 mM probenecid in HBSS (with Ca²⁺ and Mg²⁺), 20 mM HEPES, 0.3% BSA (Sigma, A7030), and 0.03% L-ascorbic acid (Sigma). Cells were incubated for 40 minutes at 37 °C and subsequently for 20 minutes at room temperature. […]
prepared in assay buffer without dye and probenecid and dispensed into separate flat-bottom 384-well plates. Calcium flux measurements were performed at room temperature using a […]
instrument (Molecular Devices). Baseline fluorescence was recorded for 20 seconds, followed by the addition of 5 µL of each drug solution, after which fluorescence was measured continuously for 250 seconds. […]

Chain of Eg.TRPMPZQ (W6UVV9 entry or part of it): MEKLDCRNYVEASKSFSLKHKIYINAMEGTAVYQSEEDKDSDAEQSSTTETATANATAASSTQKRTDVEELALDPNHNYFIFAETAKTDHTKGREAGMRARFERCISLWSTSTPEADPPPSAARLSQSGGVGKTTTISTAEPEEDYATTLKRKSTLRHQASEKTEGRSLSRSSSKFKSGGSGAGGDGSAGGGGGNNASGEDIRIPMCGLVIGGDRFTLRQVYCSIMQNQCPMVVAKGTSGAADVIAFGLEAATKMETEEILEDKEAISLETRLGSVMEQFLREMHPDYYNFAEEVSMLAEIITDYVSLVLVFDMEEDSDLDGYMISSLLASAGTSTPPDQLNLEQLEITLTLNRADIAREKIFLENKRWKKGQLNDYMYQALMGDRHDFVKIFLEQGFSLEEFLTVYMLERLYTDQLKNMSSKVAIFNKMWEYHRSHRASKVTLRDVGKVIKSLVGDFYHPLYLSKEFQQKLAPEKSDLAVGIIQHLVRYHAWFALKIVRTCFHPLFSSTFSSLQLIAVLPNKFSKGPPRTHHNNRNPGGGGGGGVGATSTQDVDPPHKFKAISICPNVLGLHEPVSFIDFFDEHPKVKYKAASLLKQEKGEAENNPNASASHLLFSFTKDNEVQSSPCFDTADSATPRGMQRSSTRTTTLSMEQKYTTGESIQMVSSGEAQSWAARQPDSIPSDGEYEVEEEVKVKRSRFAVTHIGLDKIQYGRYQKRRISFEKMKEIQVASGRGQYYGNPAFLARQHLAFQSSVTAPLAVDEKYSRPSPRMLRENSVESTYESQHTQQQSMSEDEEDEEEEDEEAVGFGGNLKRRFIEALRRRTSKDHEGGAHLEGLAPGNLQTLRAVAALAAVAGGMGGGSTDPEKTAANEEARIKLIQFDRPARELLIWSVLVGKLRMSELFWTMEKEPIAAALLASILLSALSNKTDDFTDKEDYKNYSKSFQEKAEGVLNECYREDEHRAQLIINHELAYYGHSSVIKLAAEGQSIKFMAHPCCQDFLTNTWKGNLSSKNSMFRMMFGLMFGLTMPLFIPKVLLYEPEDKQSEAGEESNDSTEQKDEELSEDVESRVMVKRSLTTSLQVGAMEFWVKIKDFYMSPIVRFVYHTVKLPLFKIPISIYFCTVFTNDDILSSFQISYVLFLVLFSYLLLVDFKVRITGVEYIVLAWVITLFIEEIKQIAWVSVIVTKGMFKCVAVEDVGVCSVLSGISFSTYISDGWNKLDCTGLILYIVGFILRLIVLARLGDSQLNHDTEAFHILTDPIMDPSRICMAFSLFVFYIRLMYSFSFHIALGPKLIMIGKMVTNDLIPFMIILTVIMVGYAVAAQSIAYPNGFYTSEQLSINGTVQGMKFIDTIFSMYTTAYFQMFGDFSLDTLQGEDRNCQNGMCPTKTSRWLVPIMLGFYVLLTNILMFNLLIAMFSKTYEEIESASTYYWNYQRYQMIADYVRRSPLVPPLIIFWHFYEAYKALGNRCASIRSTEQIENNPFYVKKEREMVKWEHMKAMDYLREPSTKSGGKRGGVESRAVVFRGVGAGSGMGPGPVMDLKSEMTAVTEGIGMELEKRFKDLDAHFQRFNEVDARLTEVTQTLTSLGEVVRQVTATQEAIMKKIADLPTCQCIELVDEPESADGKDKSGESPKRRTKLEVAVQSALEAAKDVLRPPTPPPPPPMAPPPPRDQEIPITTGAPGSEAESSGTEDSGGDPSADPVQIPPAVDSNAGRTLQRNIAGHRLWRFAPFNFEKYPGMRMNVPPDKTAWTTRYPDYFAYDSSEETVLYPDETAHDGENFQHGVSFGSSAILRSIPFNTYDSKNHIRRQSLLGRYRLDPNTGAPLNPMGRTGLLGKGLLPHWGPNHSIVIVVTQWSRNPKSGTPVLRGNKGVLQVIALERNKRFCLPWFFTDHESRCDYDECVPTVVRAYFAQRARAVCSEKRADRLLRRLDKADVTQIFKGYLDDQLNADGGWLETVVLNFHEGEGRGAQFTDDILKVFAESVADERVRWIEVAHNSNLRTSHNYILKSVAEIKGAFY

## O=C(C1CCCCC1)N1CC(=O)N2CCc3ccc(-n4cc(C5=CCCCC5)nn4)cc3C2C1 (stereo not drawn) [Compound 5b]
[1]
  EC50 for Eg.TRPMPZQ activation: No signal
[1]; read-out: Bmax, Eg.TRPMPZQ activation
  Emax: 10.4 ± 0.31%
[2]
  number of juvenile worms with viability score 0: 21
  number of juvenile worms with viability score 1: 1
  number of juvenile worms with viability score 2: 3
  number of juvenile worms with viability score 3: 7
[3]; HepG2 CC50 / female worm motility EC50, 48 h
  Selectivity Index (CC50/EC50), Female: 0.3
[3]; HepG2 CC50 / male worm motility EC50, 48 h
  Selectivity Index (CC50/EC50), Male: 0.6
[3]; HepG2 vs adult worms, 48 h
  Selectivity Index (SI), sex not specified: < 1
[4]
  CC50 at 48 h: 28.5 µM
[4]; values of independent experiments
  CC50 at 48 h: 28.7 µM
[5]; Schistosoma mansoni, 0 h, female adult worms, 0 h (immediately after addition), single experiment or geometric mean, read-out: Female worm motility inhibition (EC50)
  EC50: 101 µM
[5]; Schistosoma mansoni, 0 h, male adult worms, 0 h (immediately after addition), single experiment or geometric mean, read-out: Male worm motility inhibition (EC50)
  EC50: 32.7 µM
[5]; Schistosoma mansoni, 0 h, male, 0 h, individual experiments, read-out: Male worm motility inhibition (EC50), values of independent experiments
  EC50: 31.6 µM
[5]; Schistosoma mansoni, 24 h, female adult worms, 24 h, single experiment or geometric mean, read-out: Female worm motility inhibition (EC50)
  EC50: 96.2 µM
[5]; Schistosoma mansoni, 24 h, male adult worms, 24 h, single experiment or geometric mean, read-out: Male worm motility inhibition (EC50)
  EC50: 47 µM
[5]; Schistosoma mansoni, 24 h, male, 24 h, individual experiments, read-out: Male worm motility inhibition (EC50), values of independent experiments
  EC50: 50.4 µM
[5]; Schistosoma mansoni, 48 h, female adult worms, 48 h, single experiment or geometric mean, read-out: Female worm motility inhibition (EC50)
  EC50: 95 µM
[5]; Schistosoma mansoni, 48 h, male adult worms, 48 h, single experiment or geometric mean, read-out: Male worm motility inhibition (EC50)
  EC50: 49.2 µM
[5]; Schistosoma mansoni, 48 h, male, 48 h, individual experiments, read-out: Male worm motility inhibition (EC50), values of independent experiments
  EC50: 54.2 µM
[5]; Schistosoma mansoni, 72 h, female adult worms, 72 h, single experiment or geometric mean, read-out: Female worm motility inhibition (EC50)
  EC50: 89.1 µM
[5]; Schistosoma mansoni, 72 h, male adult worms, 72 h, single experiment or geometric mean, read-out: Male worm motility inhibition (EC50)
  EC50: 40.5 µM
[5]; Schistosoma mansoni, 72 h, male, 72 h, individual experiments, read-out: Male worm motility inhibition (EC50), values of independent experiments
  EC50: 44.7 µM
[5]; Schistosoma mansoni, female, 0-72 h, read-out: EC50 against female adult worms (motility), span over incubation times
  EC50: > 30 µM
[5]; Schistosoma mansoni, male, 0-72 h, read-out: EC50 against male adult worms (motility), span over incubation times
  EC50: > 30 µM
[5]; female adult worms, 0 h (immediately after addition), single experiment or geometric mean, read-out: Female worm motility inhibition (EC50)
  EC50: 101 µM
[5]; female adult worms, 24 h, single experiment or geometric mean, read-out: Female worm motility inhibition (EC50)
  EC50: 96 µM
[5]; female adult worms, 72 h, single experiment or geometric mean, read-out: Female worm motility inhibition (EC50)
  EC50: 89 µM
[5]; male adult worms, 0 h (immediately after addition), single experiment or geometric mean, read-out: Male worm motility inhibition (EC50)
  EC50: 33 µM
[5]; male adult worms, 48 h, single experiment or geometric mean, read-out: Male worm motility inhibition (EC50)
  EC50: 49 µM
[5]; male adult worms, 72 h, single experiment or geometric mean, read-out: Male worm motility inhibition (EC50)
  EC50: 40 µM
[5]; male, 24 h, individual experiments, read-out: Male worm motility inhibition (EC50), values of independent experiments
  EC50: 43.8 µM
[5]; male, 48 h, individual experiments, read-out: Male worm motility inhibition (EC50), values of independent experiments
  EC50: 44.6 µM
[5]; male, 72 h, individual experiments, read-out: Male worm motility inhibition (EC50), values of independent experiments
  EC50: 36.6 µM
[6]
  Bmax, wild-type Sm.TRPMPZQ activation: No activity
[6]; 0.001 to 100 μM
  EC50 for wild-type Sm.TRPMPZQ activation: failed to activate; also recorded: No activity

From publication PMC12718081 (ACS Infectious Diseases, 2025)
